Experiments:
[1] = system: castrated rats, levator ani, seminal vesicles (SV) and prostate; experiment: Levator ani & wet prostate weight assay, AR agonist assay; type: in vivo, rat; details: for EC50 (organ weight increase): castrated rats
From the text: The activity of compounds of the present invention as AR agonists is investigated in an immature male rat model, a recognized test of anabolic effects in muscle and sustaining effects in sex organs for a given compound, as described in L. G. Hershberger et al., Proc. Soc. Expt. Biol. Med., 83, 175 (1953); B. L. Beyler et al, “Methods for evaluating anabolic and catabolic agents in laboratory animals”, J. Amer. Med. Women's Ass., 23, 708 (1968); H. Fukuda et al., “Investigations of the levator ani muscle as an anabolic steroid assay”, Nago Dai. Yak. Ken. Nem. 14, 84 (1966) the disclosures of which are herein incorporated by reference.
The basis of this assay lies in the well-defined action of androgenic agents on the maintenance and growth of muscle tissues and sexual accessory organs in animals and man. Androgenic steroids, such as testosterone (T), have been well characterized for their ability to maintain muscle mass. Treatment of animals or humans after castrations with an exogenous source of T results in a reversal of muscular atrophy. The effects of T on muscular atrophy in the rat levator ani muscle have been well characterized. M. Masuoka et al., “Constant cell population in normal, testosterone deprived and testosterone stimulated levator ani muscles” Am. J. Anat. 119, 263 (1966); Z. Gori et al., “Testosterone hypertrophy of levator ani muscle of castrated rats. I. Quantitative data” Boll.-Soc. Ital. Biol. Sper. 42, 1596 (1966); Z. Gori et al., “Testosterone hypertrophy of levator ani muscle of castrated rats. II. Electron-microscopic observations” Boll.-Soc. Ital. Biol. Sper. 42, 1600 (1966); A. Boris et al., Steroids 15, 61 (1970). As described above, the effects of androgens on maintenance of male sexual accessory organs, such as the prostate and seminal vesicles, is well described. Castration results in rapid involution and atrophy of the prostate and seminal vesicles. This effect can be reversed by exogenous addition of androgens. […]

[2] = system: immature castrated rats, ventral prostate (VP) and seminal vesicles (SV); experiment: Wet prostate weight assay, AR antagonist assay; type: in vivo, rat; details: for EC50 (organ weight increase): immature castrated rats
From the text: Biol. Med., 83, 175 (1953); P. C.
The basis of this assay is the fact that male sexual accessory organs, such as the prostate and seminal vesicles, play an important role in reproductive function. These glands are stimulated to grow and are maintained in size and secretory function by the continued presence of serum testosterone (T), which is the major serum androgen (>95%) produced by the Leydig cells in the testis under the control of the pituitary luteinizing hormone (LH) and follicle stimulating hormone (FSH). […] Adrenal androgens also contribute about 20% of total DHT in the rat prostate, compared to 40% of that in 65-year-old men. F. Labrie et al. Clin. Invest. Med., 16, 475-492 (1993). However, this is not a major pathway, since in both animals and humans, castration leads to almost complete involution of the prostate and seminal vesicles without concomitant adrenalectomy. […] […] […] Since the male sex organs are the tissues most responsive to modulation of the androgen activity, this model is used to determine the androgen dependent growth of the sex accessory organs in immature castrated rats.
Five days after surgery these castrated rats (60-70 g, 23-25 day-old) are dosed for 3 days. […] Animals are dosed (v/w) at 0.5 ml of vehicle/100 g body weight. […] Control vehicle • 2.
At the end of the 3-day treatment, the animals are sacrificed, and the ventral prostate weighed. To compare data from different experiments, the sexual organs weights are first standardized as mg per 100 g of body weight, and the increase in organ weight induced by TP was considered as the maximum increase (100%). ANOVA followed by one-tailed Student or Fischer's exact test is used for statistical analysis.
The gain and loss of sexual organ weight reflect the changes of the cell number (DNA content) and cell mass (protein content), depending upon the serum androgen concentration. See Y. Okuda et al., J. Urol., 145, 188-191 (1991), the disclosure of which is herein incorporated by reference. Therefore, measurement of organ wet weight is sufficient to indicate the bioactivity of androgens and androgen antagonist.

[3] = target: endogenous glucocorticoid receptor (Homo sapiens, UniProt P04150); details: concentration of ≦10 μM; 10 ng/ml PMA; A549 cells
Chain of endogenous glucocorticoid receptor (P04150 whole entry): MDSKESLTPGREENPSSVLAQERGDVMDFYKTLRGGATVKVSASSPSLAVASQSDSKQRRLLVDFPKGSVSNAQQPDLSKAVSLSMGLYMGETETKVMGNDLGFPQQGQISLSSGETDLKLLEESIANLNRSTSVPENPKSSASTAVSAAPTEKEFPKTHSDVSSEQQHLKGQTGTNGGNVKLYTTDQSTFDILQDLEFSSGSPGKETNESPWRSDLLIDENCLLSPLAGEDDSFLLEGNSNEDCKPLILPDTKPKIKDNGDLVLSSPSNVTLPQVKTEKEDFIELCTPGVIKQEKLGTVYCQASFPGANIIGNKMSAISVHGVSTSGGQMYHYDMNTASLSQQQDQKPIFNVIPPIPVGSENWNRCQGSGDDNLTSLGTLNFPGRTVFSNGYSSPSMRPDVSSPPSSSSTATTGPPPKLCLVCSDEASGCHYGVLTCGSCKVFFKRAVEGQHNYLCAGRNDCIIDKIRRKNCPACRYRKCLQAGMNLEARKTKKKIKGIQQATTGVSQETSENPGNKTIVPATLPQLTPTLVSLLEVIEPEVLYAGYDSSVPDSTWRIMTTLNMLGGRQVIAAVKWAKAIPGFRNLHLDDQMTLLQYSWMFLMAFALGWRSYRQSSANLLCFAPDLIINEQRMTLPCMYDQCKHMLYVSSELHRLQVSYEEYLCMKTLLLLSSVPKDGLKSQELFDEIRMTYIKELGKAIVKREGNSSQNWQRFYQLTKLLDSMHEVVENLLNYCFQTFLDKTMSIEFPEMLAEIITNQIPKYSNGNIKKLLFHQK
Method: Cells are plated the day before the assay at approximately 40000 cells/well. […] Activity is measured by analysis in a luminometer as compared to control experiments treated with buffer or dexamethasome.

| SMILES | EC50 (organ weight increase) [1] | EC50 (organ weight increase) [2] | potency higher than free T ([1]; rat, in vivo) | ED80 ([2]; immature castrated rat model) [mg] | potency higher than free T ([2]; rat, in vivo) | suppression of activity (% inhibition of the reporter system vs buffer control with PMA) [3] [%] |
| --- | --- | --- | --- | --- | --- | --- |
| C[C@]12CC[C@H]3[C@@H](CCC4=CC(=O)CC[C@@]43C)[C@@H]1CC[C@@H]2O [T, testosterone] | about 1 mg | about 1 mg |  |  |  |  |
| CCC(=O)O[C@H]1CC[C@H]2[C@@H]3CCC4=CC(=O)CC[C@]4(C)[C@H]3CC[C@]12C [TP, testosterone propionate] | ~0.03 mg | ~0.03 mg | 10-30 fold | 0.1 | 10-30 fold |  |
| C[C@@H]1C[C@H]2[C@@H]3CCC4=CC(=O)C=C[C@]4(C)[C@@]3(F)[C@@H](O)C[C@]2(C)[C@@]1(O)C(=O)CO [dexamethasone] |  |  |  |  |  | 65 |
